Measured values reported in ChEMBL document CHEMBL6092138, “Discovery of the potent covalent inhibitor with an acrylate warhead for SARS-CoV-2 3CL protease” (Bioorg Med Chem Lett, 2024).

How the values were obtained:
[1] = target: Replicase polyprotein 1ab (Severe acute respiratory syndrome coronavirus 2, UniProt P0DTD1); assay: Inhibition of 6-his taggedSARS-Cov-2 3-CL protease using Dabcyl-KNSTLQSGLRKE-Edans as substrate preincubated for 60 mins followed by substrate addition by fluorescence based analysis
Huh-7 = assay: Cytotoxicity against human Huh-7 cells assessed as reduction in cell viability measured after 7 days by celltiter-glo assay; type: functional; settings: Huh-7, 168 h, time 7 day
Human coronavirus OC43 = assay: Antiviral activity against HCoV OC43 infected in human Huh-7 cells assessed as inhibition of viral replication of CPE assay; type: functional, organism-based; settings: Betacoronavirus 1, Huh-7
[2] = target: Replicase polyprotein 1ab (Severe acute respiratory syndrome coronavirus 2) (UniProt P0DTD1); assay: Binding affinity to 6-his taggedSARS-Cov-2 3-CL protease assessed as Kinact/Ki using Dabcyl-KNSTLQSGLRKE-Edans as substrate measured for 120 mins

Row | Compound | IC50 [1] [nM] | CC50 (Huh-7) [nM] | EC50 (Human coronavirus OC43) [nM] | K [2] [M⁻¹ s⁻¹]
1 | CN(C)CCOc1c(Cl)cc([C@H](NC(=O)C(F)(F)F)C(=O)N2C[C@H]3[C@@H]([C@H]2C(=O)N[C@H](C#N)C[C@@H]2CCNC2=O)C3(C)C)cc1Cl | 631 |  |  | 
2 | CC(C)(C)[C@H](NC(=O)C(F)(F)F)C(=O)N1C[C@H]2[C@@H]([C@H]1C(=O)N[C@H](C#N)C[C@@H]1CCNC1=O)C2(C)C [NIRMATRELVIR] |  | > 10000 | 72 | 
3 | COC(=O)/C=C/[C@H](C[C@@H]1CCNC1=O)NC(=O)[C@@H]1[C@@H]2[C@H](CN1C(=O)[C@@H](NC(=O)C(F)(F)F)C(C)(C)C)C2(C)C | 28.9 | > 10000 | 97 | 17200
4 | CN(C)CCOc1c(Cl)cc(C(NC(=O)C(C)(C)F)C(=O)N2C[C@H]3[C@@H]([C@H]2C(=O)N[C@H](C#N)C[C@@H]2CCNC2=O)C3(C)C)cc1Cl (stereo not given in full) | 249 |  |  | 
5 | CN(C)CCOc1c(Cl)cc([C@H](NC(=O)C(F)F)C(=O)N2C[C@H]3[C@@H]([C@H]2C(=O)N[C@H](C#N)C[C@@H]2CCNC2=O)C3(C)C)cc1Cl | 376 |  |  | 
6 | CC(C)(C)[C@H](NC(=O)C(F)(F)F)C(=O)N1C[C@H]2[C@@H]([C@H]1C(=O)N[C@H](/C=C/C(N)=O)C[C@@H]1CCNC1=O)C2(C)C | 23.4 | > 10000 | 9070 | 9750
7 | CC(=O)/C(C)=C\[C@H](C[C@@H]1CCNC1=O)NC(=O)[C@@H]1[C@@H]2[C@H](CN1C(=O)[C@@H](NC(=O)C(F)(F)F)C(C)(C)C)C2(C)C | 50.7 |  |  | 
8 | CC(C)C(=O)N[C@H](C(=O)N1C[C@H]2[C@@H]([C@H]1C(=O)N[C@H](C#N)C[C@@H]1CCNC1=O)C2(C)C)c1cc(Cl)c(OCCN(C)C)c(Cl)c1 | 206 |  |  | 
